Experimental data as given in PMC11249646, “Small-Molecule Disruptors of the Interaction between Calcium- and Integrin-Binding Protein 1 and Integrin αIIbβ3 as Novel Antiplatelet Agents” (ACS Pharmacology & Translational Science, 2024).

Molecular target: T1, CIB1 and αIIb interaction (CIB1-GST : F-αIIb peptide) (Homo sapiens, UniProt Q99828)
T1 construct: made in house; host or cells: BL-21 plus RIL cells (E. coli)
T1 sequence (Q99828 1-191): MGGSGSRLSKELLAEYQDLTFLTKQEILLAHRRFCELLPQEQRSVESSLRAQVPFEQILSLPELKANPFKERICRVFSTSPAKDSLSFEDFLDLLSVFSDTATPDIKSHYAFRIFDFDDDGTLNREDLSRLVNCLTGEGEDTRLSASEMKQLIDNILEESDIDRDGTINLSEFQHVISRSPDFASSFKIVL
Experiment: FP assay, 1536-well qHTS format (primary and confirmatory screen)
Assay type: binding
Conditions: confirmatory screen

CONFIRMATORY SCREEN Efficacy (%) | SMILES | Efficacy (%) (confirmatory screen)
-19 | Cl.O=S(=O)(Nc1nccs1)c1ccc(NCc2cc(Cl)cc(Br)c2O)cc1 [NCGC00273965-01] | –
– | O=C(O)C(F)(F)F.O=S(=O)(Nc1nccs1)c1ccc(NCc2cc(F)cc(Cl)c2O)cc1 [NCGC00273967-01] | -40
– | CC1=NN(c2ccc(C)c(C)c2)C(=O)/C1=N/Nc1cccc(-c2cccc(C(=O)O)c2)c1O [NCGC00274067-01] | -83
– | O=C(O)C(F)(F)F.O=S(=O)(Nc1nc2ccccc2s1)c1ccc(NCc2ccc(Br)cc2O)cc1 [NCGC00319026-01] | -45
– | Cc1cc(SCc2sc(-c3ccc(Cl)c(Cl)c3)nc2C)ccc1OCC(=O)O.O=C(O)C(F)(F)F [NCGC00319075-01] | -74
– | COc1cc(C=C2C(=O)Nc3ccccc32)cc(OC)c1O [NCGC00343740-01] | -81

Same assay, conditions: confirmatory screen, YES/NO

SMILES | Confirm? (confirmatory screen)
O=C(O)C(F)(F)F.O=S(=O)(Nc1nccs1)c1ccc(NCc2cc(F)cc(Cl)c2O)cc1 [NCGC00273967-01] | YES
CC1=NN(c2ccc(C)c(C)c2)C(=O)/C1=N/Nc1cccc(-c2cccc(C(=O)O)c2)c1O [NCGC00274067-01] | YES
O=C(O)C(F)(F)F.O=S(=O)(Nc1nc2ccccc2s1)c1ccc(NCc2ccc(Br)cc2O)cc1 [NCGC00319026-01] | YES
Cc1cc(SCc2sc(-c3ccc(Cl)c(Cl)c3)nc2C)ccc1OCC(=O)O.O=C(O)C(F)(F)F [NCGC00319075-01] | YES
COc1cc(C=C2C(=O)Nc3ccccc32)cc(OC)c1O [NCGC00343740-01] | YES

Same assay, conditions: confirmatory screen, qHTS curve class

CONFIRMATORY SCREEN Curve Class | SMILES
4 | Cl.O=S(=O)(Nc1nccs1)c1ccc(NCc2cc(Cl)cc(Br)c2O)cc1 [NCGC00273965-01]

Same assay, conditions: confirmatory screen, qHTS curve class; negative sign = inhibitory curve

SMILES | Curve Class (confirmatory screen)
O=C(O)C(F)(F)F.O=S(=O)(Nc1nccs1)c1ccc(NCc2cc(F)cc(Cl)c2O)cc1 [NCGC00273967-01] | -1.4
CC1=NN(c2ccc(C)c(C)c2)C(=O)/C1=N/Nc1cccc(-c2cccc(C(=O)O)c2)c1O [NCGC00274067-01] | -2.2
O=C(O)C(F)(F)F.O=S(=O)(Nc1nc2ccccc2s1)c1ccc(NCc2ccc(Br)cc2O)cc1 [NCGC00319026-01] | -2.4
Cc1cc(SCc2sc(-c3ccc(Cl)c(Cl)c3)nc2C)ccc1OCC(=O)O.O=C(O)C(F)(F)F [NCGC00319075-01] | -3
COc1cc(C=C2C(=O)Nc3ccccc32)cc(OC)c1O [NCGC00343740-01] | -2.2

Same assay, conditions: confirmatory screen; read-out: IC50 [μM] (confirmatory screen)

SMILES | IC50 [µM]
O=C(O)C(F)(F)F.O=S(=O)(Nc1nccs1)c1ccc(NCc2cc(F)cc(Cl)c2O)cc1 [NCGC00273967-01] | 31.6
CC1=NN(c2ccc(C)c(C)c2)C(=O)/C1=N/Nc1cccc(-c2cccc(C(=O)O)c2)c1O [NCGC00274067-01] | 22.4
Cc1cc(SCc2sc(-c3ccc(Cl)c(Cl)c3)nc2C)ccc1OCC(=O)O.O=C(O)C(F)(F)F [NCGC00319075-01] | 35.5

Same assay, conditions: qHTS FP screen hits, Table S2; negative = inhibition

SMILES | Efficacy (%)
CC1=NN(c2ccc(C)c(C)c2)C(=O)/C1=N/Nc1cccc(-c2cccc(C(=O)O)c2)c1O [NCGC00274067-01] | -69
O=C(O)C(F)(F)F.O=S(=O)(Nc1nc2ccccc2s1)c1ccc(NCc2ccc(Br)cc2O)cc1 [NCGC00319026-01] | -50

Same assay, conditions: qHTS FP screen hits, Table S2; one class per curve where COUNT > 1; negative sign = inhibitory curve

SMILES | Curve Class
O=C(O)C(F)(F)F.O=S(=O)(Nc1nc2ccccc2s1)c1ccc(NCc2ccc(Br)cc2O)cc1 [NCGC00319026-01] | -2.2

Same assay, conditions: qHTS FP screen hits, Table S2; read-out: IC50

SMILES | IC50 [µM]
CC1=NN(c2ccc(C)c(C)c2)C(=O)/C1=N/Nc1cccc(-c2cccc(C(=O)O)c2)c1O [NCGC00274067-01] | 44.7
O=C(O)C(F)(F)F.O=S(=O)(Nc1nc2ccccc2s1)c1ccc(NCc2ccc(Br)cc2O)cc1 [NCGC00319026-01] | 39.8

Same assay, conditions: qHTS primary screen hits, Table S2; negative = inhibition

SMILES | Efficacy (%)
Cl.O=S(=O)(Nc1nccs1)c1ccc(NCc2cc(Cl)cc(Br)c2O)cc1 [NCGC00273965-01] | -33
O=C(O)C(F)(F)F.O=S(=O)(Nc1nccs1)c1ccc(NCc2cc(F)cc(Cl)c2O)cc1 [NCGC00273967-01] | -28
Cc1cc(SCc2sc(-c3ccc(Cl)c(Cl)c3)nc2C)ccc1OCC(=O)O.O=C(O)C(F)(F)F [NCGC00319075-01] | -41
COc1cc(C=C2C(=O)Nc3ccccc32)cc(OC)c1O [NCGC00343740-01] | -53

Same assay, conditions: qHTS primary screen hits, Table S2; negative sign = inhibitory curve; several classes where COUNT > 1

Curve Class | SMILES
-1.4 | Cl.O=S(=O)(Nc1nccs1)c1ccc(NCc2cc(Cl)cc(Br)c2O)cc1 [NCGC00273965-01]
-2.2 | COc1cc(C=C2C(=O)Nc3ccccc32)cc(OC)c1O [NCGC00343740-01]

SMILES | Curve Class
O=C(O)C(F)(F)F.O=S(=O)(Nc1nccs1)c1ccc(NCc2cc(F)cc(Cl)c2O)cc1 [NCGC00273967-01] | -1.4

Same assay, conditions: qHTS primary screen hits, Table S2; read-out: IC50

SMILES | IC50 [µM]
Cl.O=S(=O)(Nc1nccs1)c1ccc(NCc2cc(Cl)cc(Br)c2O)cc1 [NCGC00273965-01] | 11.2
O=C(O)C(F)(F)F.O=S(=O)(Nc1nccs1)c1ccc(NCc2cc(F)cc(Cl)c2O)cc1 [NCGC00273967-01] | 1.8
Cc1cc(SCc2sc(-c3ccc(Cl)c(Cl)c3)nc2C)ccc1OCC(=O)O.O=C(O)C(F)(F)F [NCGC00319075-01] | 34
COc1cc(C=C2C(=O)Nc3ccccc32)cc(OC)c1O [NCGC00343740-01] | 44.7

Molecular target: T2, GST-CIB1 : F-scrambled peptide (Homo sapiens, UniProt Q99828)
T2 construct: made in house; host or cells: BL-21 plus RIL cells (E. coli)
T2 sequence (Q99828 1-191): T1 sequence (Q99828 1-191)
Experiment: FP scrambled-peptide counter screen, 1536-well format
Assay type: binding
Conditions: counterscreen

COUNTERSCREEN Efficacy (%) | SMILES | Efficacy (%) (counterscreen)
0 | Cl.O=S(=O)(Nc1nccs1)c1ccc(NCc2cc(Cl)cc(Br)c2O)cc1 [NCGC00273965-01] | –
– | O=C(O)C(F)(F)F.O=S(=O)(Nc1nccs1)c1ccc(NCc2cc(F)cc(Cl)c2O)cc1 [NCGC00273967-01] | 170
– | CC1=NN(c2ccc(C)c(C)c2)C(=O)/C1=N/Nc1cccc(-c2cccc(C(=O)O)c2)c1O [NCGC00274067-01] | -37
– | O=C(O)C(F)(F)F.O=S(=O)(Nc1nc2ccccc2s1)c1ccc(NCc2ccc(Br)cc2O)cc1 [NCGC00319026-01] | -15
– | Cc1cc(SCc2sc(-c3ccc(Cl)c(Cl)c3)nc2C)ccc1OCC(=O)O.O=C(O)C(F)(F)F [NCGC00319075-01] | 78
– | COc1cc(C=C2C(=O)Nc3ccccc32)cc(OC)c1O [NCGC00343740-01] | -44

Same assay, conditions: counterscreen, YES/NO

SMILES | Confirm? (counterscreen)
O=C(O)C(F)(F)F.O=S(=O)(Nc1nccs1)c1ccc(NCc2cc(F)cc(Cl)c2O)cc1 [NCGC00273967-01] | YES
O=C(O)C(F)(F)F.O=S(=O)(Nc1nc2ccccc2s1)c1ccc(NCc2ccc(Br)cc2O)cc1 [NCGC00319026-01] | YES
Cc1cc(SCc2sc(-c3ccc(Cl)c(Cl)c3)nc2C)ccc1OCC(=O)O.O=C(O)C(F)(F)F [NCGC00319075-01] | YES

Same assay, conditions: counterscreen, qHTS curve class

COUNTERSCREEN Curve Class | SMILES
4 | Cl.O=S(=O)(Nc1nccs1)c1ccc(NCc2cc(Cl)cc(Br)c2O)cc1 [NCGC00273965-01]

Same assay, conditions: counterscreen, qHTS curve class; negative sign = inhibitory curve

SMILES | Curve Class (counterscreen)
O=C(O)C(F)(F)F.O=S(=O)(Nc1nccs1)c1ccc(NCc2cc(F)cc(Cl)c2O)cc1 [NCGC00273967-01] | 3
CC1=NN(c2ccc(C)c(C)c2)C(=O)/C1=N/Nc1cccc(-c2cccc(C(=O)O)c2)c1O [NCGC00274067-01] | -1.2
O=C(O)C(F)(F)F.O=S(=O)(Nc1nc2ccccc2s1)c1ccc(NCc2ccc(Br)cc2O)cc1 [NCGC00319026-01] | 4
COc1cc(C=C2C(=O)Nc3ccccc32)cc(OC)c1O [NCGC00343740-01] | -2.4

Same assay, conditions: counterscreen; read-out: IC50 [μM] (counterscreen)

SMILES | IC50 [µM]
O=C(O)C(F)(F)F.O=S(=O)(Nc1nccs1)c1ccc(NCc2cc(F)cc(Cl)c2O)cc1 [NCGC00273967-01] | 39.8
CC1=NN(c2ccc(C)c(C)c2)C(=O)/C1=N/Nc1cccc(-c2cccc(C(=O)O)c2)c1O [NCGC00274067-01] | 35.5
Cc1cc(SCc2sc(-c3ccc(Cl)c(Cl)c3)nc2C)ccc1OCC(=O)O.O=C(O)C(F)(F)F [NCGC00319075-01] | 79.4
COc1cc(C=C2C(=O)Nc3ccccc32)cc(OC)c1O [NCGC00343740-01] | 44.7
